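1) Cells in 96-well plates. 2) Compound, 48 h, 5 concentrations. 3) Linear interpolation between surrounding doses. 4) Unreached endpoint = highest concentration. GI50: concentration for 50% inhibition of growth. TGI: total growth inhibition.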
Legend:
Assay in all cases: inhibition of tumour cell growth, NCI panel, 48 h
A498 renal = tested on: A498 renal
SNB-19 CNS = tested on: SNB-19 CNS
HCC-2998 colon = tested on: HCC-2998 colon
786-0 renal = tested on: 786-0 renal
SK-MEL-28 melanoma = tested on: SK-MEL-28 melanoma
SNB-75 CNS = tested on: SNB-75 CNS
SW-620 colon = tested on: SW-620 colon
PC-3 prostate = tested on: PC-3 prostate
A549 NSCLC = tested on: A549 NSCLC
NCI-H23 lung = tested on: NCI-H23 lung
CCRF-CEM leukemia = tested on: CCRF-CEM leukemia
MDA-MB-435 = tested on: MDA-MB-435
MCF7 breast = tested on: MCF7 breast
HL-60(TB) leukemia = tested on: HL-60(TB) leukemia
SF-539 CNS = tested on: SF-539 CNS
HCT-15 colon = tested on: HCT-15 colon
U251 CNS = tested on: U251 CNS
IGROV1 ovarian = tested on: IGROV1 ovarian
HOP-92 NSCLC = tested on: HOP-92 NSCLC
ACHN renal = tested on: ACHN renal
MOLT-4 leukemia = tested on: MOLT-4 leukemia
BT-549 breast = tested on: BT-549 breast
UACC-62 melanoma = tested on: UACC-62 melanoma
SN12C renal = tested on: SN12C renal
OVCAR-5 ovarian = tested on: OVCAR-5 ovarian
NCI-H460 lung = tested on: NCI-H460 lung
SK-MEL-5 melanoma = tested on: SK-MEL-5 melanoma
RPMI-8226 leukemia = tested on: RPMI-8226 leukemia
OVCAR-3 ovarian = tested on: OVCAR-3 ovarian
T-47D breast = tested on: T-47D breast
SK-OV-3 ovarian = tested on: SK-OV-3 ovarian
SK-MEL-2 melanoma = tested on: SK-MEL-2 melanoma
HOP-62 NSCLC = tested on: HOP-62 NSCLC
MALME-3M melanoma = tested on: MALME-3M melanoma
EKVX NSCLC = tested on: EKVX NSCLC
HT29 colon = tested on: HT29 colon
UO-31 renal = tested on: UO-31 renal
HS 578T breast = tested on: HS 578T breast
COLO 205 colon = tested on: COLO 205 colon
SR leukemia = tested on: SR leukemia
HCT-116 colon = tested on: HCT-116 colon
UACC-257 melanoma = tested on: UACC-257 melanoma
NCI-H226 lung = tested on: NCI-H226 lung
TK-10 renal = tested on: TK-10 renal
RXF 393 renal = tested on: RXF 393 renal
DU-145 prostate = tested on: DU-145 prostate
OVCAR-8 ovarian = tested on: OVCAR-8 ovarian
OVCAR-4 ovarian = tested on: OVCAR-4 ovarian
LOX IMVI melanoma = tested on: LOX IMVI melanoma
MDA-MB-231 breast = tested on: MDA-MB-231 breast
M14 melanoma = tested on: M14 melanoma
SF-268 CNS = tested on: SF-268 CNS
KM12 colon = tested on: KM12 colon
SF-295 CNS = tested on: SF-295 CNS
NCI-H522 lung = tested on: NCI-H522 lung
NCI/ADR-RES ovarian = tested on: NCI/ADR-RES ovarian
CAKI-1 renal = tested on: CAKI-1 renal
K-562 leukemia = tested on: K-562 leukemia

`CN1C[C@@H](c2ccc(Cl)cc2)[C@]2(NC(=S)N(c3ccc(F)c(Cl)c3)C2=O)[C@@]12C(=O)NC1C=CC(Cl)=C[C@H]12` (some centres not stated) was tested, and the GI50 (A498 renal) was 2.74 µM, the TGI (A498 renal) was 10.1 µM and the GI50 (SNB-19 CNS) was 3.17 µM. It also gave a TGI (SNB-19 CNS) of 14.4 µM, a GI50 (HCC-2998 colon) of 3.85 µM and a TGI (HCC-2998 colon) of 13.8 µM. The GI50 (786-0 renal) was 2.08 µM, the TGI (786-0 renal) was 4.82 µM and the GI50 (SK-MEL-28 melanoma) was 3.61 µM. For the same compound, the TGI (SK-MEL-28 melanoma) was 12.9 µM, the GI50 (SNB-75 CNS) was 1.87 µM and the TGI (SNB-75 CNS) was 9.92 µM. It also gave a GI50 (SW-620 colon) of 3.19 µM, a TGI (SW-620 colon) of 13.1 µM and a GI50 (PC-3 prostate) of 2.25 µM. The TGI (PC-3 prostate) was 6.42 µM, the GI50 (A549 NSCLC) was 3.34 µM and the TGI (A549 NSCLC) was 12.3 µM. The GI50 (NCI-H23 lung) was 2.66 µM, the TGI (NCI-H23 lung) was 10.1 µM and the GI50 (CCRF-CEM leukemia) was 4.13 µM. For the same compound, the TGI (CCRF-CEM leukemia) was 18.6 µM, the GI50 (MDA-MB-435) was 3.02 µM and the TGI (MDA-MB-435) was 11.2 µM. For the same compound, the GI50 (MCF7 breast) was 2.82 µM, the TGI (MCF7 breast) was 12 µM and the GI50 (HL-60(TB) leukemia) was 2.48 µM. It also gave a TGI (HL-60(TB) leukemia) of 6.02 µM, a GI50 (SF-539 CNS) of 3.29 µM and a TGI (SF-539 CNS) of 12.2 µM. For the same compound, the GI50 (HCT-15 colon) was 3 µM, the TGI (HCT-15 colon) was 10.3 µM and the GI50 (U251 CNS) was 2.01 µM. For the same compound, the TGI (U251 CNS) was 4.71 µM, the GI50 (IGROV1 ovarian) was 3.12 µM and the TGI (IGROV1 ovarian) was 14.6 µM. The GI50 (HOP-92 NSCLC) was 2.49 µM, the TGI (HOP-92 NSCLC) was 7.13 µM and the GI50 (ACHN renal) was 3.07 µM. It also gave a TGI (ACHN renal) of 10.6 µM, a GI50 (MOLT-4 leukemia) of 2.87 µM and a TGI (MOLT-4 leukemia) of 14.6 µM. The GI50 (BT-549 breast) was 4.62 µM, the TGI (BT-549 breast) was 17.1 µM and the GI50 (UACC-62 melanoma) was 3.11 µM. It also gave a TGI (UACC-62 melanoma) of 12.3 µM, a GI50 (SN12C renal) of 1.86 µM and a TGI (SN12C renal) of 3.74 µM. The GI50 (OVCAR-5 ovarian) was 2.36 µM, the TGI (OVCAR-5 ovarian) was 6.14 µM and the GI50 (NCI-H460 lung) was 2.44 µM. The TGI (NCI-H460 lung) was 6.09 µM, the GI50 (SK-MEL-5 melanoma) was 1.97 µM and the TGI (SK-MEL-5 melanoma) was 4.21 µM. For the same compound, the GI50 (RPMI-8226 leukemia) was 2.72 µM, the TGI (RPMI-8226 leukemia) was 7.06 µM and the GI50 (OVCAR-3 ovarian) was 2.12 µM. The TGI (OVCAR-3 ovarian) was 4.75 µM, the GI50 (T-47D breast) was 2.85 µM and the TGI (T-47D breast) was 13.6 µM. It also gave a GI50 (SK-OV-3 ovarian) of 3.09 µM, a TGI (SK-OV-3 ovarian) of 10.4 µM and a GI50 (SK-MEL-2 melanoma) of 3.08 µM. It also gave a TGI (SK-MEL-2 melanoma) of 10.3 µM, a GI50 (HOP-62 NSCLC) of 3.14 µM and a TGI (HOP-62 NSCLC) of 12.7 µM. It also gave a GI50 (MALME-3M melanoma) of 2.81 µM, a TGI (MALME-3M melanoma) of 9.09 µM and a GI50 (EKVX NSCLC) of 2.72 µM. The TGI (EKVX NSCLC) was 20.3 µM, the GI50 (HT29 colon) was 2.1 µM and the TGI (HT29 colon) was 4.24 µM. The GI50 (UO-31 renal) was 1.6 µM, the TGI (UO-31 renal) was 3.86 µM and the GI50 (HS 578T breast) was 2.96 µM. For the same compound, the TGI (HS 578T breast) was 16.7 µM, the GI50 (COLO 205 colon) was 1.75 µM and the TGI (COLO 205 colon) was 3.46 µM. For the same compound, the GI50 (SR leukemia) was 2.79 µM, the TGI (SR leukemia) was 7.18 µM and the GI50 (HCT-116 colon) was 3.12 µM. The TGI (HCT-116 colon) was 10.2 µM, the GI50 (UACC-257 melanoma) was 3.48 µM and the TGI (UACC-257 melanoma) was 14.1 µM. The GI50 (NCI-H226 lung) was 1.82 µM, the TGI (NCI-H226 lung) was 4.72 µM and the GI50 (TK-10 renal) was 3.48 µM. For the same compound, the TGI (TK-10 renal) was 8.06 µM, the GI50 (RXF 393 renal) was 1.88 µM and the TGI (RXF 393 renal) was 3.73 µM. For the same compound, the GI50 (DU-145 prostate) was 3.35 µM, the TGI (DU-145 prostate) was 12.6 µM and the GI50 (OVCAR-8 ovarian) was 2.78 µM. The TGI (OVCAR-8 ovarian) was 8.6 µM, the GI50 (OVCAR-4 ovarian) was 3.75 µM and the TGI (OVCAR-4 ovarian) was 18.6 µM. For the same compound, the GI50 (LOX IMVI melanoma) was 1.7 µM, the TGI (LOX IMVI melanoma) was 3.33 µM and the GI50 (MDA-MB-231 breast) was 1.88 µM. The TGI (MDA-MB-231 breast) was 4.27 µM, the GI50 (M14 melanoma) was 2.95 µM and the TGI (M14 melanoma) was 10.6 µM. For the same compound, the GI50 (SF-268 CNS) was 2.89 µM, the TGI (SF-268 CNS) was 11.2 µM and the GI50 (KM12 colon) was 2 µM. For the same compound, the TGI (KM12 colon) was 4.92 µM, the GI50 (SF-295 CNS) was 1.89 µM and the TGI (SF-295 CNS) was 4.46 µM. The GI50 (NCI-H522 lung) was 2.84 µM, the TGI (NCI-H522 lung) was 10.9 µM and the GI50 (NCI/ADR-RES ovarian) was 2.54 µM. The TGI (NCI/ADR-RES ovarian) was 8.97 µM.
In the case of `Cn1c(-c2cccc(N)c2)[n+](C)c2ccccc21`, the TGI (CAKI-1 renal) is reported as > 100 µM, the TGI (A498 renal) is reported as > 100 µM and the TGI (K-562 leukemia) is reported as > 100 µM. For the same compound, the TGI (SNB-19 CNS) was > 100 µM, the TGI (HCC-2998 colon) was > 100 µM and the TGI (786-0 renal) was > 100 µM. The TGI (SK-MEL-28 melanoma) was > 100 µM, the TGI (SNB-75 CNS) was > 100 µM and the TGI (SW-620 colon) was > 100 µM. The TGI (PC-3 prostate) was > 100 µM, the TGI (A549 NSCLC) was > 100 µM and the TGI (NCI-H23 lung) was > 100 µM. The TGI (CCRF-CEM leukemia) was > 100 µM, the TGI (MDA-MB-435) was > 100 µM and the TGI (MCF7 breast) was > 100 µM. For the same compound, the TGI (HL-60(TB) leukemia) was > 100 µM, the TGI (SF-539 CNS) was > 100 µM and the TGI (HCT-15 colon) was > 100 µM. The TGI (IGROV1 ovarian) was > 100 µM, the TGI (HOP-92 NSCLC) was > 100 µM and the TGI (ACHN renal) was > 100 µM. For the same compound, the TGI (MOLT-4 leukemia) was > 100 µM, the TGI (BT-549 breast) was > 100 µM and the TGI (UACC-62 melanoma) was > 100 µM. The TGI (OVCAR-5 ovarian) was > 100 µM, the TGI (NCI-H460 lung) was > 100 µM and the TGI (SK-MEL-5 melanoma) was > 100 µM. The TGI (RPMI-8226 leukemia) was > 100 µM, the TGI (OVCAR-3 ovarian) was > 100 µM and the TGI (T-47D breast) was > 100 µM. For the same compound, the TGI (SK-OV-3 ovarian) was > 100 µM, the TGI (SK-MEL-2 melanoma) was > 100 µM and the TGI (HOP-62 NSCLC) was > 100 µM. For the same compound, the TGI (MALME-3M melanoma) was > 100 µM, the TGI (EKVX NSCLC) was > 100 µM and the TGI (HT29 colon) was > 100 µM. For the same compound, the TGI (UO-31 renal) was > 100 µM, the TGI (HS 578T breast) was > 100 µM and the TGI (COLO 205 colon) was > 100 µM. The TGI (SR leukemia) was > 100 µM, the TGI (HCT-116 colon) was > 100 µM and the TGI (UACC-257 melanoma) was > 100 µM. For the same compound, the TGI (NCI-H226 lung) was > 100 µM, the TGI (TK-10 renal) was > 100 µM and the TGI (RXF 393 renal) was > 100 µM. The TGI (DU-145 prostate) was > 100 µM, the TGI (OVCAR-8 ovarian) was > 100 µM and the TGI (OVCAR-4 ovarian) was > 100 µM. For the same compound, the TGI (LOX IMVI melanoma) was > 100 µM, the TGI (MDA-MB-231 breast) was > 100 µM and the TGI (M14 melanoma) was > 100 µM. The TGI (SF-268 CNS) was > 100 µM, the TGI (KM12 colon) was > 100 µM and the TGI (SF-295 CNS) was > 100 µM. The TGI (NCI/ADR-RES ovarian) was > 100 µM.

Reference: PubChem BioAssay (NCI)
